Results published in publication PMC9019572, “Design, Synthesis, and Biological Evaluation of [1,2,4]triazolo[4,3-a] Pyrazine Derivatives as Novel Dual c-Met/VEGFR-2 Inhibitors” (Frontiers in Chemistry, 2022).

What was measured:
[1] = system: A549 cells; experiment: MTT antiproliferative assay, A549; assay type: cell-based; conditions: Homo sapiens, 72 h;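 also: formazan read-out dissolved in DMSO, each compound assayed three times, IC50 computed with Bliss software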
Experimental: The cell lines used in the experiment were available from the Cell Culture Collection of Chinese Academy of Sciences (Shanghai Institutes for Biological Sciences, Chinese Academy of Sciences). […] The formazan crystals were dissolved in 100 µl of DMSO in each well. […] All compounds were tested three times in each of the cell lines. The results, expressed as inhibition rates or IC50 (half-maximal inhibitory concentration), were the averages of two determinations and calculated by using the Bacus Laboratories Incorporated Slide Scanner (Bliss) software.

[2] = system: MCF-7 cells; experiment: MTT antiproliferative assay, MCF-7; assay type: cell-based; conditions: Homo sapiens, MCF7; MTT, 72 h, MCF-7 cells; read-out: IC50 MCF-7
Experimental: (§1) The cell lines used in the experiment were available from the Cell Culture Collection of Chinese Academy of Sciences (Shanghai Institutes for Biological Sciences, Chinese Academy of Sciences). Referring to the previous experimental methods of our research, all cells were cultured in suitable medium such as DMEM or RPMI-1640 containing 10% fetal bovine serum at 37°C in 5% CO2 and propagated for 24 h. Then the compounds with different gradient concentrations were added into the medium and incubated for 72 h, and then MTT (thiazolyl blue tetrazolium bromide) with a concentration of 5 µg/ml was added to every well for 4 h at 37°C. The formazan crystals were dissolved in 100 µl of DMSO in each well. The absorbancy at 492 nm (for absorbance of MTT formazan) and 630 nm (for the reference wavelength) was measured with an ELISA reader. All compounds were tested three times in each of the cell lines. The results, expressed as inhibition rates or IC50 (half-maximal inhibitory concentration), were the averages of two determinations and calculated by using the Bacus Laboratories Incorporated Slide Scanner (Bliss) software.

[3] = system: Hela cells; experiment: MTT antiproliferative assay, Hela; assay type: cell-based; conditions: Homo sapiens; MTT, 72 h, Hela cells; read-out: IC50 Hela
Experimental: as §1

[4] = biological target: c-Met kinase (Homo sapiens, UniProt P08581); experiment: c-Met kinase inhibition assay; assay type: biochemical
[5] = biological target: VEGFR-2 (Homo sapiens, UniProt P35968); experiment: VEGFR-2 kinase inhibition assay; assay type: biochemical
Experimental: (§2) The kinase assay was performed by Pratzer Biotechnology Co. Ltd. (Changsha, China).

[6] = biological target: EGFR^WT (Homo sapiens, UniProt P00533); experiment: EGFR^wt kinase inhibition assay; assay type: biochemical
Experimental: as §2

[7] = system: PC-9 cells; experiment: Antiproliferative activity, PC-9; assay type: cell-based; conditions: Homo sapiens
Experimental: as §1

[8] = system: H460 cells; experiment: Antiproliferative activity, H460; assay type: cell-based; conditions: Homo sapiens, NCI-H460
Experimental: as §1

[9] = system: H1975 cells; experiment: Antiproliferative activity, H1975; assay type: cell-based; conditions: Homo sapiens, NCI-H1975
Experimental: as §1

[10] = system: A549 cells; experiment: Cell cycle assay by flow cytometry; assay type: cell-based, human; conditions: A549, 1.0 μM, 72 h; control 61.14%
Experimental: A549 cells were placed in 12-well plates at a density of 10^6/well with F-12 K containing 10% FBS as the medium, and the experiment was conducted on alternate days. Cells (1–5×10^6) were collected, centrifuged at 1,500 rpm for 5 min to remove the supernatant, washed with PBS twice, and gently mixed with 200 μl of cell cycle rapid detection reagent to make a single-cell suspension, which was detected by flow cytometry within 1 h.
We treated A549 cells with 1.0 μM compound 17l for 72 h and determined its effect on cell cycle by flow cytometry to further reveal the growth inhibition mechanism of the target compound on tumor cells. […] At the same time, the content of cell block rate decreased in S phase, but the change in G2/M phase was not obvious.

[11] = system: A549 cells; experiment: Annexin V/PI apoptosis assay by flow cytometry; assay type: cell-based, human; conditions: 72 h; for Q1-LR: control 1.68%; for Q1-UL: control 1.87%; for Q1-UR: control 2.05%; for total apoptosis rate: control 3.73%; for Q1-LL: control 94.40%
Experimental: The cell apoptosis assay was performed by Pratzer Biotechnology Co. Ltd. (Changsha, China). After A549 cells were resuscitated, the cells were cultured in F-12 K medium containing 10% FBS and 1% pen/strep in incubator with 5% CO2 at 37°C. A549 cells, being in the logarithmic growth phase, were digested with […] and laid in six-well plates with a density of 2 × 10^5/well, and the cells were collected centrifugally after 72 h of treatment with each compound. The cells were washed twice with PBS, which was precooled to 4°C. Then the cells were suspended with 500 μl of buffer, and the concentration was adjusted to 10^6/ml. A 100-μl suspension was placed in a 5-ml flow tube, adding 5 µl of Annexin V-APC, adding 5 μl of propidiμm iodide, and the mixture was mixed and incubated at room temperature without light for 15 min detecting cell apoptosis by flow cytometry (FACS).
The assay of annexin V/PI staining was performed to deeper research the mechanism of apoptosis induced by compound 17l in A549 cells.

[12] = system: p-c-Met (Tyr1003); experiment: Western blot, p-c-Met in A549 cells; assay type: cell-based, human; conditions: A549, 24 h, different concentrations
Description: (§3) Western blot was utilized to further analyze the effect of compound 17l on the downstream signal protein of c-Met and VEGFR-2. The detailed operations refer to the previous method of our research group ([Zhao et al., 2020]). […] The extracted protein was transferred to a PVDF membrane in ice bath conditions after 10% SDS polyacrylamide gel electrophoresis separating the protein by size. The PVDF membrane was rinsed with phosphate-buffered solution (PBST), shaken in a Petri dish three times for 3–5 min every time, and incubated with different target proteins (p-c-Met, p-VEGFR-2, p-ERK 1/2, p-AKT, and GADPH). Finally, the film was exposed and developed in a darkroom. Image Lab software (Molecular Dynamics, Sunnyvale, CA, USA) was utilized to analyze the shadow density of each band, which was then expressed as a percentage of GDPDH band density ([Zhao et al., 2020]).
(§4) We further verified the effect of compound 17l on c-Met and downstream signaling pathways. We treated A549 cell line with different doses of compound 17l for 24 h to measure its phosphorylation inhibition in different pathways.

[13] = system: p-VEGFR-2 (Tyr1059); experiment: Western blot, p-VEGFR-2 in A549 cells; assay type: cell-based, human; conditions: A549, 24 h, different concentrations
Description: as §3, §4

[14] = system: ERK1/2 and AKT; experiment: Western blot, downstream ERK1/2 and AKT phosphorylation in A549 cells; assay type: cell-based, human; conditions: A549, 24 h, 1.00 μM
Description: as §3, §4

[15] = system: sheep red blood cells; experiment: Hemolytic test; conditions: 16–256 μg/ml, at the highest concentration within the study range
Experimental: The hemolytic toxicity of 17l was studied with 1% Triton and 0.9% normal saline, and the former was a positive control, and the latter was a negative control. […] (1%), 0.9% normal saline, and compound 17l of different concentrations prepared in 0.9% normal saline reacted with the prepared sheep red blood cells, respectively. Photos were taken, and the absorbance value was measured by ultraviolet spectrophotometer at a wavelength of 540 nm, and hemolysis ratio (hemolysis %) was calculated according to the following formula ([Guo et al., 2017]). The experiment was repeated twice in parallel. Hemolysis %=Abs(experimental group)−Abs(negative control)/Abs(positive control)−Abs(negative control)
The best compound 17l with antiproliferative activity and kinase inhibition activity was selected to detect its hemolytic toxicity at a gradient concentration of 16–256 μg/ml, and the safety of intravenous administration was preliminarily investigated. […] Its hemolytic toxicity meets the requirements of intravenous administration, which provides a basis for further in vivo research.

Chain of EGFR^WT (P00533 25-1210): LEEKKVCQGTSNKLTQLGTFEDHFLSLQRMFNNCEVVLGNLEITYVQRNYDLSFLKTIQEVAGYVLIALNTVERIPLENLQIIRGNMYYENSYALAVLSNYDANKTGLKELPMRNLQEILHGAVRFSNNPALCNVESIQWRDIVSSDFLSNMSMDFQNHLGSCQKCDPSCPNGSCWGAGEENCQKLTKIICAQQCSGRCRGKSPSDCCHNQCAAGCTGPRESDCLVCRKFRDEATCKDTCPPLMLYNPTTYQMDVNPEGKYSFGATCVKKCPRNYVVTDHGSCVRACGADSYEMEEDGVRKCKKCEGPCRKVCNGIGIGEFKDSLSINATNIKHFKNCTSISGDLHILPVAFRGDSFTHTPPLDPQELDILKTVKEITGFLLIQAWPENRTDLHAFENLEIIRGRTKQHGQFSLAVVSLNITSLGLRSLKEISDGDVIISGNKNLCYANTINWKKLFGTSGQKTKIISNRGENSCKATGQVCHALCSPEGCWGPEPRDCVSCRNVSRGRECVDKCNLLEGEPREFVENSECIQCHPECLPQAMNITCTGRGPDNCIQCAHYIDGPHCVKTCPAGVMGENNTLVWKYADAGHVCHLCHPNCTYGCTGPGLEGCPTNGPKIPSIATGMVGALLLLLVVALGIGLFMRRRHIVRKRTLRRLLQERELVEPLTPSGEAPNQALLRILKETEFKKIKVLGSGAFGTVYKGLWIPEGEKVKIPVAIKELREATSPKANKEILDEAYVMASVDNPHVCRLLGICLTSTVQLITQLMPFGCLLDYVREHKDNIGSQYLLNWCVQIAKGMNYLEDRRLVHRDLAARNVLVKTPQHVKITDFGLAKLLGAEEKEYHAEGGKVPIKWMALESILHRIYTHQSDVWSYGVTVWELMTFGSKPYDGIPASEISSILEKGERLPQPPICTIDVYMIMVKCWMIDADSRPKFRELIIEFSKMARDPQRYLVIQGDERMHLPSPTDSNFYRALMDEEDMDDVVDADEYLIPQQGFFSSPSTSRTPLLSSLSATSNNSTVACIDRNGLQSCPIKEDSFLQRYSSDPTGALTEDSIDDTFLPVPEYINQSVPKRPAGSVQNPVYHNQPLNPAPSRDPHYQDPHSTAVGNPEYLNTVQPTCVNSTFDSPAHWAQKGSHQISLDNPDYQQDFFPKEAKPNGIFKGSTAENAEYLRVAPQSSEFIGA
Chain of c-Met kinase (P08581 25-1390): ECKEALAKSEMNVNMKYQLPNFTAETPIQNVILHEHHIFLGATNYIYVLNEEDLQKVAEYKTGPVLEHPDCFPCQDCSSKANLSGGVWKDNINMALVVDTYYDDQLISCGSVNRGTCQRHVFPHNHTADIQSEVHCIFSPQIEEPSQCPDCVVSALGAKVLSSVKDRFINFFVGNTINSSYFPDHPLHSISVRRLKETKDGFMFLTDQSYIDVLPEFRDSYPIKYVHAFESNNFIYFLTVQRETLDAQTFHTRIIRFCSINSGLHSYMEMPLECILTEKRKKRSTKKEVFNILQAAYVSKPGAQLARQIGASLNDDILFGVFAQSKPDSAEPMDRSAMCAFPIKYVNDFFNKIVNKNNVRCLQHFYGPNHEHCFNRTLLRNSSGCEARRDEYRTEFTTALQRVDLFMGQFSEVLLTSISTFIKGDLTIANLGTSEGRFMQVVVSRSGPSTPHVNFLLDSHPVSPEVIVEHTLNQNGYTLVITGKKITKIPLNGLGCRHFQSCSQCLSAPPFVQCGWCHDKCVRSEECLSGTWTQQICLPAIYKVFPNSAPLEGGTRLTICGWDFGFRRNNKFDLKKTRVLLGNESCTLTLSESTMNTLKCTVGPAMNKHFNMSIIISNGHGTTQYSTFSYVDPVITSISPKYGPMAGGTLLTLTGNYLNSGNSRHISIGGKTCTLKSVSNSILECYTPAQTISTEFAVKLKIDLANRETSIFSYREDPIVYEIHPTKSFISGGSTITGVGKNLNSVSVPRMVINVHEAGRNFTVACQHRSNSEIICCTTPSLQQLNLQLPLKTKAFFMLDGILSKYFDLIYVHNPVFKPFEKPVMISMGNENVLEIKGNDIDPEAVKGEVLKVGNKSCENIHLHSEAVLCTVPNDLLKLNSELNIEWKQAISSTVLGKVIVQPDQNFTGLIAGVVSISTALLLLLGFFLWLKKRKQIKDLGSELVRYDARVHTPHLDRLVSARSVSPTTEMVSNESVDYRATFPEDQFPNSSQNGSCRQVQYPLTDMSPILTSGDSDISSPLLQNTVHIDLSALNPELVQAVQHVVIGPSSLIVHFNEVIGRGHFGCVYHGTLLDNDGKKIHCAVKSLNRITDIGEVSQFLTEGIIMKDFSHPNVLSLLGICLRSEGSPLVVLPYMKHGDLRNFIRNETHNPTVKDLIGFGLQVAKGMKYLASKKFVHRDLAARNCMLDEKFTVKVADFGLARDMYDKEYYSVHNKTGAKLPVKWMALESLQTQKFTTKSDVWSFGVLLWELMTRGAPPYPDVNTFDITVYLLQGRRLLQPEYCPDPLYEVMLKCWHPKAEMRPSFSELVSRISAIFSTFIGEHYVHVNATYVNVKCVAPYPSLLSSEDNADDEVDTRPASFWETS
Chain of VEGFR-2 (P35968 20-1356): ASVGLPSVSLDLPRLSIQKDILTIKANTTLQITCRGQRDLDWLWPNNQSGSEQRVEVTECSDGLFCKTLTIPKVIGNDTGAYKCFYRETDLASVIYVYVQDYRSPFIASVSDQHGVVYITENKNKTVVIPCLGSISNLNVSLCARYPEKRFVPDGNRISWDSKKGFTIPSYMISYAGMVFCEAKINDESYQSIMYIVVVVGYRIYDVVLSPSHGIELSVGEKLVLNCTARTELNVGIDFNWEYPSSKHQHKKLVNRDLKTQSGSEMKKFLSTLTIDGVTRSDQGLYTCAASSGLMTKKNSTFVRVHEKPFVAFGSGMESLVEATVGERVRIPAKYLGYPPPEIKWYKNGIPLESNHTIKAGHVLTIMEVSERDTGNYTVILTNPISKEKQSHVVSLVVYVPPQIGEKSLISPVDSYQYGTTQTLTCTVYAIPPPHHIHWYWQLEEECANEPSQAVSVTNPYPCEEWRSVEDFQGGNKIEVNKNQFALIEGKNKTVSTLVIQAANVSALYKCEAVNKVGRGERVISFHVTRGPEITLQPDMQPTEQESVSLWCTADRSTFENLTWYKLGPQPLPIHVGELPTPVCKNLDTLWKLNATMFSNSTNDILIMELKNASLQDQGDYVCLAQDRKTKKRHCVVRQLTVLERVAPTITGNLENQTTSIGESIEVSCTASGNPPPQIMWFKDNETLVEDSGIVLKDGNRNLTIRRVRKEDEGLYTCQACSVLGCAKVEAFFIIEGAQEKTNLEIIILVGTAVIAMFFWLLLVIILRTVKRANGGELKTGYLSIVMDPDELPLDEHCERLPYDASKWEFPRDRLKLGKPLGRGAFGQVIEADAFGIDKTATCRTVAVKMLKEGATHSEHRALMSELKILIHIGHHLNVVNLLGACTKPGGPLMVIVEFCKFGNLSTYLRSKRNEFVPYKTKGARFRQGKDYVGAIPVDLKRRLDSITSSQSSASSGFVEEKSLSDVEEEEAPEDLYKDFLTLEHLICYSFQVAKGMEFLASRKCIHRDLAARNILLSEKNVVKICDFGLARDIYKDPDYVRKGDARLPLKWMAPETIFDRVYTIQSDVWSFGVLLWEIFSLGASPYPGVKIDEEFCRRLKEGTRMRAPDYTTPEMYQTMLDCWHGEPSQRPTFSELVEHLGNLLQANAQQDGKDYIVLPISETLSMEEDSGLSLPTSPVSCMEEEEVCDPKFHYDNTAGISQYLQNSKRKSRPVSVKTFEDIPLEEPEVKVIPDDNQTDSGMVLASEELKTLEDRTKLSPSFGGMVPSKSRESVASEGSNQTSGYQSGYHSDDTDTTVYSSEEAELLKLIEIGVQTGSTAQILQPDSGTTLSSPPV

Compound: Cc1nnc2c(Oc3ccc(NC(=O)c4cnn(-c5ccc(Cl)cc5)c4C(F)(F)F)cc3F)nccn12 [17l]
- IC50 [1]: 980 ± 80 nM
- IC50 [2]: 1050 ± 170 nM
- IC50 [3]: 1280 ± 250 nM
- IC50 [4]: 26 nM
- IC50 [5]: 2600 nM
- IC50 [6]: > 10000 nM
- IC50 [7]: 38200 ± 1580 nM
- IC50 [8]: 5860 ± 770 nM
- IC50 [9]: 15300 ± 1180 nM
- cell block rate in G0/G1 phase [10]: 76.14%
- Q1-LR ([11]; A549, 0.25 μM): 2.15%
- Q1-UL ([11]; A549, 0.25 μM): 4.27%
- Q1-UR ([11]; A549, 0.25 μM): 2.71%
- total apoptosis rate ([11]; A549, 0.25 μM): 4.86%
- Q1-LL ([11]; A549, 0.25 μM): 90.88%
- Q1-LR ([11]; A549, 0.50 μM): 3.07%
- Q1-UL ([11]; A549, 0.50 μM): 1.53%
- Q1-UR ([11]; A549, 0.50 μM): 3.38%
- total apoptosis rate ([11]; A549, 0.50 μM): 6.45%
- Q1-LL ([11]; A549, 0.50 μM): 92.02%
- Q1-LR ([11]; A549, 1.00 μM): 5.52%
- Q1-UL ([11]; A549, 1.00 μM): 0.30%
- Q1-UR ([11]; A549, 1.00 μM): 6.09%
- total apoptosis rate ([11]; A549, 1.00 μM): 11.61%
- Q1-LL ([11]; A549, 1.00 μM): 88.09%
- protein levels of p-c-Met (Tyr1003) [12]: inhibited
- inhibitory effect on p-VEGFR-2 (Tyr1059) [13]: not obvious
- phosphorylation protein of downstream signals ERK1/2 and AKT [14]: significantly inhibited
- hemolytic rate [15]: less than 5%
